Positions count from the first letter of the chain named. Names may count otherwise. Where no end group is shown, it is not given here. [ ]: non-standard residue; d: D form. Tyr(3-NO2) = N[C@@H](Cc1ccc(O)c([N+](=O)[O-])c1)C(=O)O; 2Abz = Nc1ccccc1C(=O)O
T1: HpHtrA wt (Helicobacter pylori, UniProt G2J5T2)
T1 sequence (G2J5T2 18-475): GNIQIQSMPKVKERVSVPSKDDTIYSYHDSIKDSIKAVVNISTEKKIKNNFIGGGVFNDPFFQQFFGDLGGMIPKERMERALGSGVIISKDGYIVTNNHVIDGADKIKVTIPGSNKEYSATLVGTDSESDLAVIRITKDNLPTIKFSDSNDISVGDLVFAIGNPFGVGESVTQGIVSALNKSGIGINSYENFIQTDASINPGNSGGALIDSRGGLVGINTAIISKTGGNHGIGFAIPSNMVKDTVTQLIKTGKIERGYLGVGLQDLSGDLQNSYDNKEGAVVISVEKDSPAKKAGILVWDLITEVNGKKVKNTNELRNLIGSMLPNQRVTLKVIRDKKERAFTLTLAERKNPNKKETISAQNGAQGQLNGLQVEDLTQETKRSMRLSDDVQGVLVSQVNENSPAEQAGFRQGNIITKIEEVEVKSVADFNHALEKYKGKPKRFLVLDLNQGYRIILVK

T2: HpHtrA (Helicobacter pylori, UniProt G2J5T2)
T2 construct: (HpHtrA, G18-K475, UniProt G2J5T2); GST (N, cleaved yes); made in house; host or cells: E. coli BL21
T2 sequence (G2J5T2 18-475): T1 sequence (G2J5T2 18-475)

B1: HpHtrA S164A (enzyme)
chain: T1 sequence (G2J5T2 18-475) with S147A
B2: HtrA wild type (wt) from the H. pylori strain Hp26695 (enzyme)
chain: T1 sequence (G2J5T2 18-475)
notes: also called HpHtrA; HpHtrA wt

What was measured:
HpHtrA wt = biological target: T1, HpHtrA wt; test: MS analysis of HpHtrA-mediated cleavage of the FRET peptide; type: biochemical; design: (HpHtrA, G18-K475, UniProt G2J5T2); GST (N, cleaved yes); made in house; host or cells: E. coli BL21; conditions: peptide:HpHtrA 20:1, 50 mM HEPES pH 7.4, 3 h, 37 °C, MALDI-TOF-MS
Method: (§1) Fig. S4. MS analysis of the HpHtrA-mediated cleavage products of 2-Abz-AQRVAF-Y(3-NO2)-NH2. The […]
(§2) ratio in 50 mM HEPES buffer (pH 7.4) for 3 h at 37°C. The samples were desalted by using ZipTip® pipette tips (Merck Millipore) and measured by MALDI -TOF-MS (positive mode). The peptide was found to be stable in the buffer in the absence of the protease as well as in the presence of the HpHtrA […]
(§3) (1 picture or pasted object on this page, not shown here)

[1] = type: physicochemical; conditions: 50 mM HEPES pH 7.4, 3 h, 37 °C, absence of protease and presence of HpHtrA SA mutant
Method: as §1, §2, §3

HpHtrA [2] = biological target: T2, HpHtrA; test: in vitro E-cadherin (hCdh1) cleavage by HpHtrA (Western blot); type: biochemical; conditions: 1 mM; 50 ng hCdh1, 250 ng HpHtrA, 16 h, 37 °C
Excerpt: (§4) The proteins were separated by SDS-PAGE and visualized by staining with Coomassie Brilliant Blue G250 (Lactan, Vienna, Austria). […] Proteins were separated using SDS-PAGE and blotted onto a nitrocellulose membrane. Human Cdh1 was detected by an antibody recognizing the EC5 domain of hCdh1 (Abcam, Cambridge, UK) and a polyclonal serum was used to detect HpHtrA[22]. Independent experiments were repeated at least three times.

HpHtrA [3] = biological target: T2, HpHtrA; test: in vitro casein cleavage by HpHtrA (Coomassie SDS-PAGE); type: biochemical; conditions: 1 mM; 10 µg casein, 250 ng HpHtrA, 16 h, 37 °C
Excerpt: as §4

[4] = biological target: the molecule itself; test: casein zymography + other: non-reducing SDS-PAGE; recombinant HpHtrA proteins in non-reducing sample buffer without beta-mercaptoethanol; SDS-PAGE with 0.1% casein, renatured and developed 24 h at 37 °C, or Coomassie-stained non-reducing SDS-PAGE for detection of multimers
[5] = biological target: the molecule itself; test: non-reducing SDS-PAGE; HpHtrA wt untreated or with increasing concentrations of ZnCl2 or CuCl2; Coomassie-stained SDS-PAGE under non-reducing conditions

Molecule	effect on HpHtrA-mediated hCdh1 cleavage/fragmentation (HpHtrA [2])	effect on HtrA-mediated casein degradation (HpHtrA [3])	also measured
2-Abz-AQRVAF-Y(3-NO2)-NH2 ([2Abz]AQRVAF[Tyr(3-NO2)]-NH2; N-terminus assumed; SMILES CC(C)[C@H](NC(=O)[C@H](CCCNC(=N)N)NC(=O)[C@H](CCC(N)=O)NC(=O)[C@H](C)NC(=O)c1ccccc1N)C(=O)N[C@@H](C)C(=O)N[C@@H](Cc1ccccc1)C(=O)N[C@@H](Cc1ccc(O)c([N+](=O)[O-])c1)C(N)=O) [FRET substrate peptide AQRVAF with N-terminal 2-aminobenzoyl fluorophore and C-terminal 3-nitro-tyrosine quencher]			cleavage of the peptide by HpHtrA (HpHtrA wt): fully cleaved, preferentially after Val; stability of the peptide [1]: stable
[Ca+2].[Cl-].[Cl-] [Ca^++, CaCl2]	significantly blocked		
O=C(O)CN(CCN(CC(=O)O)CC(=O)O)CC(=O)O [EDTA, ethylenediaminetetraacetic acid, reference compound]	considerably enhanced	did not alter	
O=C(O)CN(CCOCCOCCN(CC(=O)O)CC(=O)O)CC(=O)O [EGTA, ethylene glycol-bis(β-aminoethyl ether)-N,N,N′,N′-tetraacetic acid, reference compound]	considerably enhanced	did not alter	
B1			binding result [4]: binds
B2			binding result [5]: binds

Source: PMC7324608 (Scientific Reports, 2020)
